One may read the inhibition as the share of the control response that was lost under treatment. The IC50 is the point on the concentration scale where inhibition reaches its midpoint. By CC50 is commonly meant the concentration at which the toxic effect on the cells reaches its halfway point.

Molecules are shown by their SMILES.

This is an account of results in paper PMC9976467, “Anti-Trypanosoma cruzi activity of Coptis rhizome extract and its constituents” (Tropical Medicine and Health, 2023).

The subject of series [1] is T. cruzi Trypo + Ama (Luc2-Tulahuen). Put plainly: In vitro anti-T. cruzi (trypomastigotes and amastigotes) mixture culture luciferase assay. In kind it is cell-based, Trypanosoma cruzi. The settings on record: for inhibition at 20 µM / IC50: Trypanosoma cruzi, TULAHUEN; for inhibition at 20 µM: read-out: reduction of parasite signals (inhibition in the T. cruzi mixture culture); for IC50: trypomastigotes mixed with NMH cells, 72 h; for reduction of parasite signals (inhibition in the T. cruzi mixture culture): first screen, compounds 20 μM (Fig. 1). As to the method:
Luc2-Tulahuen trypomastigotes (3 × 10^4/well) and NMH cells (5 × 10^4/well) were mixed into a 96-well white plate. Test samples and controls were added and incubated with the cells for 72 h. NP-40 (Wako Pure Chemicals Industrial Ltd, Japan) was used as the positive control, and a solvent in which the drug was dissolved as a negative. After 72 h of incubation, 100 μl of luciferin solution containing 0.6% NP-40 (Piccagene) (Toyo Ink Group, Japan) was added. Luminescence intensity was measured by a plate reader (ARVO MX 1420) (Measurement time: 1 s).
(§1) The IC50 was calculated using the following equation: IC50=10^logA/B×50-C/D-C+logB, where A is the lowest concentration at which the percentage inhibition exceeds 50%, B is the highest concentration at which percentage inhibition is less than 50%, and C and D are the percentage inhibition of the sample at concentrations B and A, respectively.

In series [2] the test system is mouse fibroblast cells (NMH) and human bile duct carcinoma cell line (HuH28). In words: Cytotoxicity screen of Kampo library on host cells (alamarBlue). In kind it is cell-based. As to conditions: compounds 20 μM (Fig. 2). (In general: The colour change of resazurin is a common sign of viable cells or microbes.)
From the text: Data are presented as percent reduction in intensity, indicating cell viability. Experiments were done in triplicates
In series [3] the test system is T. cruzi Intracell Ama (Luc2-Tulahuen). In words: In vitro anti-T. cruzi (intracellular amastigotes) luciferase assay in NMH cells. The settings on record: for IC50: Trypanosoma cruzi, TULAHUEN, infected NMH cells, 72 h; for loss of luminescence intensity in IC50 curve, in words: NMH cells with amastigotes (Supplement Figure 2). The series is classed as cell-based, Trypanosoma cruzi. As to the method:
The intracellular amastigotes assay was described by Alonso-Padilla et al.. Briefly, 6 × 10^6 trypomastigotes and 3 × 10^6 host cells (NMH cells) are seeded in a 25 cm^2 flask in serum-free media (MEM + 1% newborn calf serum) to enhance the intracellular infection. After 24 h incubation, the cells were washed twice with phosphate buffered saline (PBS), then replaced by MEM + 10% newborn calf serum and incubated for another 24 h. Infected cells were detached by trypsinization. Infected host fibroblast cells (5 × 10^4/well) were seeded into a 96-well plate. Test samples and the controls were added to the mixture and incubated for 72 h. Luminescence intensity was measured by a plate reader and the Piccagene (Measurement time: 1 s).
as §1

A short description of series [4]: Cytotoxicity, alamarBlue viability, NMH cells. In kind it is cell-based, mouse. The settings on record: mouse. As to the method: (§2) NMH cells or HuH28 cells (1 × 10^4/well) of 100 μl aliquots were seeded on a 96-well black plate. Test samples were added and incubated for 72 h. NP-40 was added as a positive control (100% cytotoxicity) and a solvent in which the samples were dissolved as a negative control (0% cytotoxicity). Then 10 μl of alamarBlue reagent (10%, Funakoshi Co., Tokyo, Japan) for mitochondria staining was added and incubated for another 4 h. The fluorescence intensity (544 nm/590 nm) was measured with a plate reader (measurement time: 0.1 s).
(§3) The concentration required to reduce cell viability by 50% (CC50) was calculated using the following equation: CC50=10^logA/B×50-C/D-C+logB, where A is the lowest concentration at which the cell viability exceeds 50%, B is the highest concentration at which cell viability is less than 50%, and C and D are the cell viability of the sample at concentrations B and A, respectively.

The nature of series [5]: Cytotoxicity, alamarBlue viability, HuH28 cells. The series is classed as cell-based. As to conditions: human. As to the method:
as §2, §3

In series [6] the test system is T. cruzi Epi (Luc2-Tulahuen epimastigotes). In words: In vitro assay for anti-epimastigote form of T. cruzi activity (luciferase). The settings on record: for IC50: Trypanosoma cruzi, TULAHUEN, epimastigotes, 72 h. The series is classed as cell-based, Trypanosoma cruzi. As to the method:
Luc2-Tulahuen epimastigotes (2 × 10^5/well) were dispensed into 96-well plate. After 72 h incubation, luminescence intensity was measured by adding lysis buffer with luciferin as substrate (PicaGene Luminescence Kit, Fuji Film Wako chemicals, Japan) (Measurement time: 1 s).
as §1

Series [7] concerns NMH cells (newborn mouse heart fibroblast cells). In words: Cytotoxicity, alamarBlue viability, NMH cells. In kind it is cell-based. As to the method: as §2, §3
The test system of series [8] is DHODH in Plasmodium falciparum. Also on record: method as in PMID 29582555. The settings on record: cited from earlier work.
For series [9] the following is noted: in vivo; cited from earlier work.
The next series deals with human DHODH. Also noted: method as in PMID 29582555. The settings on record: cited from earlier work.
In series [10] the test system is T. cruzi (Luc2-Tulahuen trypomastigotes). Put plainly: Murine acute infection model with live bioluminescence imaging. In kind it is in vivo, BALB/c mice. As to conditions: for luminescence intensity / parasiticidal activity compared with benznidazole group: 30 mg/kg bid i.p. vs benznidazole 100 mg/kg p.o., day 4 to 8. As to the method:
Mice were housed and maintained in Nagasaki University Biomedical Research Center (12 h light/dark cycle). Female BALB/c mice from 6 to 10 weeks old (20–25 g) were used in all the experiments. Mice were obtained as wild type from SLC (Japan). In standard experiments, 5 × 10^3 in vitro tissue culture-derived trypomastigotes (TCTs) was intra-peritoneally (i.p.) inoculated into mouse. The mice were handled according to the international guidelines and institutional guideline of Nagasaki University for the use and maintenance of experimental animals. Ethical approval for this study was obtained from the institutional ethical review board, Nagasaki University (approval number R12005).
Mice were intra-peritoneally injected with 150 mg/kg d-luciferin (SYD labs, USA), then anesthetized using 2.5% (vol/vol) gaseous isoflurane in oxygen. To measure bioluminescence, mice were placed in an IVIS Lumina II system (Caliper Life Science, USA) and images were acquired 10 min after d-luciferin administration using LivingImage 4.3 (Caliper Life Sciences, USA). Exposure time was fixed as 5 min. Anesthesia was maintained throughout the imaging process through the nose cone. Whole body luminescence was determined by drawing the region of interest (ROI) and quantifying the bioluminescence expressed as total flux (photons/second; p/s). Coptisine chloride was administered intra-peritoneally (i.p.) at a dose of 30 mg/kg twice a day. Benznidazole (100 mg/kg) as a positive control and the drug solvent as a negative control were administered orally (p.o.) once a day. Drug was administered for 5 consecutive days from day 4 to 8 of infection. Measurements with IVIS Lumina II were performed at five different times: on day 3 of infection (the day before drug treatment), on day 9 of infection (the day after drug treatment was completed), on day 14, 28 and 40 of infection. To maintain fairness, different experimenters performed drug treatments and luminescence intensity measurements. At day 29, BALB/c mice were injected with cyclophosphamide (Sigma-Aldrich, USA) (200 mg/kg) as an immunosuppressant by i.p. and were followed by a maximum of 3 doses at 3 day intervals. The use of immunosuppressant like cyclophosphamide could help enhance the visibility of the infected lesions even after 100 dpi. In this animal study, treatment was given when the luminescence intensity was high. In addition, an immunosuppressant was administered when the difference in luminescence intensity among the three groups became small due to natural immunity of the mice.

Setting [11] is: NMH cells (newborn mouse heart fibroblast cells), 72 h, read-out: CC50, NMH, AlamarBlue viability.
[12] abbreviates: HuH28 cells (human bile duct carcinoma cell line), 72 h, read-out: CC50, HuH28, AlamarBlue viability.

With `C[C@H]1CC[C@@]2(OC1)O[C@H]1C[C@H]3[C@@H]4CC[C@@H]5C[C@@H](O[C@@H]6O[C@H](CO)[C@H](O)[C@H](O)[C@H]6O[C@@H]6O[C@H](CO)[C@@H](O)[C@H](O)[C@H]6O)CC[C@]5(C)[C@H]4CC[C@]3(C)[C@H]1[C@@H]2C` [Timosaponin A-III], the inhibition at 20 µM in [1] is more than 80%.
Turning to `COc1cc2c(cc1OC)-c1cc3ccc(OC)c(OC)c3c[n+]1CC2` [Palmatine chloride], in series [2], the “cytotoxic effect on host cells, in words” value is “relatively lower cytotoxicity”. For the same molecule, the results for the IC50 in series [3], in series [1] and in [6] were 17.4 µM, 2.66 µM and 22.3 µM, respectively. Besides, the figures for the cytotoxic concentration (CC50) at 72 h in [4] (setting [11]) and in [5] (setting [12]) were more than 40 µM and more than 100 µM, respectively. In addition, in [1], the inhibition at 20 µM was more than 80%.
As for `COc1cc2c(cc1OC)-c1c(C)c3ccc(OC)c(OC)c3c[n+]1CC2` [Dehydrocorydaline nitrate], the “cytotoxic effect on host cells, in words” value in series [2] is given as “relatively lower cytotoxicity”. Further, the IC50 in series [3] came to 7.89 µM; in series [1], 3.47 µM; in series [6], 17.3 µM. In addition, the cytotoxic concentration (CC50) at 72 h in series [4] is more than 40 µM; in [5], more than 100 µM. In addition, the inhibition at 20 µM in [1] was more than 80%.
As for `COc1ccc2cc3[n+](cc2c1O)CCc1cc2c(cc1-3)OCO2` [Berberrubine chloride], the IC50 in series [3] turned out to be 33.5 µM; in series [1] it was 20.1 µM. Further, the cytotoxic concentration (CC50) at 72 h is more than 40 µM in [4] and more than 100 µM in [5]. In series [7], the “cytotoxic effect against normal NMH cells, in words” value is “slight cytotoxic effect”.
On to `c1c2c(cc3c1OCO3)-c1cc3ccc4c(c3c[n+]1CC2)OCO4` [Coptisine chloride], for which the “cytotoxic effect on host cells, in words” value in series [2] is listed as “relatively lower cytotoxicity”. The figures for the IC50 in [3], in series [1] and in series [6] were 4.98 µM, 4.48 µM and 15.1 µM, respectively. The values for the CC50 at 72 h in series [4] (setting [11]) and in series [5] (setting [12]) were more than 40 µM and more than 100 µM, respectively. For the same molecule, in [8], the “inhibition of DHODH in Plasmodium falciparum, in words” value is given as “non-competitively inhibits”. In addition, in series [9], the “oral bioavailability, in words” value is “low”. Also, the “inhibitory activity against human DHODH, in words” value with human DHODH is “weak inhibitory activity”. The “relapse detected on day 40 after immunosuppressant” value in [10] (30 mg/kg bid i.p. day 4 to 8, compared with benznidazole 100 mg/kg p.o.) was “smaller than that in the benznidazole treatment group”. The “luminescence intensity after immune suppression treatment compared with control group” value in [10] (30 mg/kg bid i.p. day 4 to 8, day 40, after cyclophosphamide) is listed as “significantly reduced”. Besides, the results for the “luminescence intensity / parasiticidal activity compared with benznidazole group” value in series [10] (listed as coptisine) and in series [10] (listed as coptisine chloride) were “equivalent parasiticidal activity” and “slightly higher than that of the benznidazole group”, respectively. In addition, the “luminescence intensity of treated group compared with untreated group” value in [10] (30 mg/kg bid i.p., day 4 to 8 of infection, after 5-day treatment) is “significantly reduced”. In addition, the “adverse events during in vivo experiment” value in series [10] (BALB/c mice, 30 mg/kg bid i.p.) is listed as “did not see any significant adverse events”. In addition, the inhibition at 20 µM in [1] was more than 80%. The “effectiveness against epimastigotes relative to benznidazole” value in series [6] (from IC50 15.1 µM vs 3.78 µM) was “fourfold less effective”.
In the case of `CC(C)=CC[C@H](O)C1=CC(=O)c2c(O)ccc(O)c2C1=O` [Alkanin], in [1], the “reduction of parasite signals (inhibition in the T. cruzi mixture culture)” value is recorded as “more than 80%”.
For `c1cc2c(c3c1CC1c4cc5c(cc4CCN1C3)OCO5)OCO2` (racemic) [dl-Tetrahydro coptisine], the “loss of luminescence intensity in IC50 curve, in words” value in series [3] is “No loss of intensity”; in series [1] (NMH cells and trypomastigotes (Supplement Figure 1)) it was “No loss of intensity”. Besides, the concentration for half-maximal inhibition (IC50) in series [3] and in [1] was more than 40 µM in each case. The CC50 at 72 h is more than 40 µM in series [4] (setting [11]) and more than 100 µM in series [5] (setting [12]).
For `COc1ccc2cc3[n+](cc2c1OC)CCc1cc2c(cc1-3)OCO2.[Cl-]` [Berberin chloride], the “reduction of parasite signals (inhibition in the T. cruzi mixture culture)” value in series [1] was “more than 80%”.
As to `O=C(Cn1ccnc1[N+](=O)[O-])NCc1ccccc1` [Benznidazole, reference compound], the concentration for half-maximal inhibition (IC50) came out at 4.91 µM in series [3], 2.78 µM in series [1] and 3.78 µM in series [6]. The values for the half-maximal cytotoxic concentration (CC50) at 72 h in series [4] and in series [5] were more than 40 µM and more than 100 µM, respectively.
Regarding `CC(C)=CC[C@@H](O)C1=CC(=O)c2c(O)ccc(O)c2C1=O` [Shikonin], in [1], the inhibition at 20 µM is more than 80%.
Regarding `COc1cc2c(cc1OC)-c1cc3ccc4c(c3c[n+]1CC2)OCO4` [Epiberberine chloride], the “loss of luminescence intensity in IC50 curve, in words” value in series [3] is recorded as “No loss of intensity”. Further, the half-maximal inhibitory concentration (IC50) in [3] and in series [1] was more than 40 µM throughout. The CC50 at 72 h in [4] is more than 40 µM; in series [5], more than 100 µM.
